Data on four compounds can be found in patent US20100305159A1, “CRYSTALLINE FORM OF PIPERIDINE COMPOUND” (MITSUBISHI TANABE PHARMA CORPORATION, priority 2007, published 2010).

Data set [1] can be described thus: Stability at 40° C./75% RH in a glass bottle with an open state for 4 weeks. The data set is classed as physicochemical. The method, then:
Stabilities of crystalline forms of Type I, Type II and Type VII, and amorphous of (2R,4S)-1-{N-(3,5-bistri-fluoromethylbenzyl)-N-methyl}aminocarbonyl-2-(4-fluoro-2-methylphenyl)-4-(2-hydroxyethylaminocarboxyloxy)piperidine were observed under the conditions of at 40° C./75% RH in a glass bottle with an open state for 4 weeks. […] Accordingly, improvement in stability according to crystallization could be confirmed.

The nature of data set [2]: Hygroscopicity by Dynamic Vapor Sorption. The format is physicochemical. Particulars: DVS-1, 25° C., relative humidity range 0 to 90%, 10 mg. The method, then: With regard to Type I and Type II crystalline forms of (2R,4S)-1-{N-(3,5-bistrifluoromethylbenzyl)-N-methyl}-aminocarbonyl-2-(4-fluoro-2-methylphenyl)-4-(2-hydroxy-ethylaminocarboxyloxy)piperidine, hygroscopicity was measured according to the following mentioned conditions.
Device: Dynamic Vapor Sorption device DVS-1 manufactured by Surface Measurement Systems, UK Amount of specimen: 10 mg Measured temperature: 25° C. Relative humidity range: 0 to 90% Experimental example 1 Neurokinin-1 (NK1) receptor binding inhibitory action Human lymphoblastoma IM-9 cells (5 10^6 cell/tube) were reacted with 0.3 nM [^3H] […] The reaction mixture was subjected to suction filtration with a GF/C glass filter which had previously been treated with 0.3% polyethyleneimine, washed with 0.3 ml of ice-cold reaction buffer containing no bovine serum albumin and various kinds of protein decomposition enzyme inhibitors twice, and radioactivity (dpm) on the filter was measured by a liquid scintillation counter. […]

Data set [3] concerns the target T1, human neurokinin-1 receptor (Homo sapiens, UniProt P25103).
T1 construct: Human lymphoblastoma IM-9 cells (5 10^6 cell/tube) were reacted with 0.3 nM; endogenous in cells; host or cells: human lymphoblastoma IM-9 cells
The data set can be described thus: Neurokinin-1 (NK1) receptor binding inhibitory action, [3H](Sar9, Met11(O2)) Substance P on IM-9 cells. From the text: Measurements on the crystalline form of the present invention can be carried out, for example, according to the method described in European Journal of Pharmacology, vol. 254, pages 221-227 (1994) with respect to a neurokinin-1 receptor binding action, and according to the method described in European Journal of Pharmacology, vol. 265, pages 179-183 (1994) with respect to an action against a neurokinin-1 receptor […] inducing action, further according to the method described in Journal of Urology, vol.
Device: Dynamic Vapor Sorption device DVS-1 manufactured by Surface Measurement Systems, UK Amount of specimen: 10 mg Measured temperature: 25° C. Relative humidity range: 0 to 90% Experimental example 1 Neurokinin-1 (NK1) receptor binding inhibitory action Human lymphoblastoma IM-9 cells (5 10^6 cell/tube) were reacted with 0.3 nM [^3H] (Sar^9, Met^11 (O2)) Substance P and the prepared Type II crystalline form of (2R,4S)-1-{N-(3,5-bistrifluoromethylbenzyl)-N-methyl}aminocarbonyl-2-(4-fluoro-2-methylphenyl)-4-(2-hydroxyethylaminocarboxyloxy)-piperidine in 0.5 ml of 50 mM Tris-HCl (pH 7.4, 25° C.) containing 150 mM NaCl, 3 mM MnCl2, 40 μg/ml bacitracin, 4 μg/ml Leupeptin, 4 μg/ml Chymostatin, 4 μg/ml Phosphoramidon and 0.02% bovine serum albumin at room temperature for 60 minutes according to the method described in European Journal of Pharmacology, vol. 254, pp. 221-227 (1994). The reaction mixture was subjected to suction filtration with a GF/C glass filter which had previously been treated with 0.3% polyethyleneimine, washed with 0.3 ml of ice-cold reaction buffer containing no bovine serum albumin and various kinds of protein decomposition enzyme inhibitors twice, and radioactivity (dpm) on the filter was measured by a liquid scintillation counter. A specific binding amount was obtained by subtracting non-specific binding amount (L-703606 (10 μM) having NK1 receptor antagonistic action) from a total binding amount.

Entries after “also recorded” stand apart in the source; their conditions may differ.

T1 sequence (P25103 whole entry): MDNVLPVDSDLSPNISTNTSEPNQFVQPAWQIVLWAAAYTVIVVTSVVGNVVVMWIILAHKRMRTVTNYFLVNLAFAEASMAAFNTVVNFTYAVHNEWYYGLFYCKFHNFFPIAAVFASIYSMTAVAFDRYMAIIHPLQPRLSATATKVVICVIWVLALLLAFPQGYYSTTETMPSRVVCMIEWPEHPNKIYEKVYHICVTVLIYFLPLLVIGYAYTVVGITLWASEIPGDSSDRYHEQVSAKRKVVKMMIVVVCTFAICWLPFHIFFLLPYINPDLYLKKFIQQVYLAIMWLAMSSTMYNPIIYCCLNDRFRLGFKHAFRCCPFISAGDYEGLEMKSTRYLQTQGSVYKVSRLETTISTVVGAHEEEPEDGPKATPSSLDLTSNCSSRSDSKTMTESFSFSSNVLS

As to `Cc1cc(F)ccc1[C@H]1C[C@@H](OC(=O)NCCO)CCN1C(=O)N(C)Cc1cc(C(F)(F)F)cc(C(F)(F)F)c1` [Type I, (2R,4S)-1-{N-(3,5-bistrifluoromethylbenzyl)-N-methyl}aminocarbonyl-2-(4-fluoro-2-methylphenyl)-4-(2-hydroxyethylaminocarbonyloxy)piperidine], in data set [1], the change in appearance entry is recorded as “no change in appearance”. The “hygroscopicity (change in weight under high humidity conditions)” value in data set [2] is reported as “no hygroscopicity”.
As to `Cc1cc(F)ccc1[C@H]1C[C@@H](OC(=O)NCCO)CCN1C(=O)N(C)Cc1cc(C(F)(F)F)cc(C(F)(F)F)c1` [Type II, (2R,4S)-1-{N-(3,5-bistrifluoromethylbenzyl)-N-methyl}aminocarbonyl-2-(4-fluoro-2-methylphenyl)-4-(2-hydroxyethylaminocarbonyloxy)piperidine], in data set [3] (Human lymphoblastoma IM-9 cells, 0.3 nM [3H](Sar9, Met11(O2)) Substance P, room temperature 60 minutes, read-out: IC50 value, NK1 receptor binding inhibition), the IC50 (usually the concentration at which inhibition is half-maximal) came out at 4.59 nM. Moreover, in data set [3] (Human lymphoblastoma IM-9 cells, 0.3 nM [3H](Sar9, Met11(O2)) Substance P, room temperature 60 minutes, read-out: Ki value, NK1 receptor binding inhibition), the Ki (usually a measure of affinity in units of concentration, obtained from inhibition or displacement) was 2.22 nM. Also, in data set [3] (human NK1 receptor, IM-9 cells), the “neurokinin-1 receptor binding action (in words)” value was “inhibited said Substance P with concentration-dependently; also recorded: showed a human neurokinin-1 receptor binding action with concentration-dependently”. Further, in data set [1], the change in appearance entry is listed as “no change in appearance”. Also, in data set [2], the “hygroscopicity (change in weight under high humidity conditions)” value was “no hygroscopicity”.
As to `Cc1cc(F)ccc1[C@H]1C[C@@H](OC(=O)NCCO)CCN1C(=O)N(C)Cc1cc(C(F)(F)F)cc(C(F)(F)F)c1` [Type VII, (2R,4S)-1-{N-(3,5-bistrifluoromethylbenzyl)-N-methyl}aminocarbonyl-2-(4-fluoro-2-methylphenyl)-4-(2-hydroxyethylaminocarbonyloxy)piperidine], the change in appearance entry in data set [1] was “no change in appearance”.
For the compound `Cc1cc(F)ccc1[C@H]1C[C@@H](OC(=O)NCCO)CCN1C(=O)N(C)Cc1cc(C(F)(F)F)cc(C(F)(F)F)c1` [amorphous, (2R,4S)-1-{N-(3,5-bistrifluoromethylbenzyl)-N-methyl}aminocarbonyl-2-(4-fluoro-2-methylphenyl)-4-(2-hydroxyethylaminocarbonyloxy)piperidine], in data set [1], the change in appearance entry was “marked change in appearance (white powder→white lump)” and the moisture absorption result is on record as “moisture absorption was admitted”.
